PMC9019904, “AD Informer Set: Chemical tools to facilitate Alzheimer's disease drug discovery” (Alzheimer's & Dementia : Translational Research & Clinical …, 2022)
Where a SMILES comes first, the peptide text is derived from it. [ ]: non-standard residue; d: D form. dHyp = O=C(O)[C@H]1C[C@H](O)CN1

Experiments:
[1] = test system: BV2 (mouse microglia) cell line; experiment: pHrodo-myelin phagocytosis/cell viability high content imaging assay: phagocytosis signal; assay type: cell-based
Description: (§1) It is important to note that stressed cells, such as those that are dying, are prone to show an increase in phagocytosis. […] MerTK promotes phagocytosis and thus MerTK inhibition is proposed to lead to inhibition of phagocytosis.[47]
(§2) phagocytosis and cell viability simultaneously. High content imaging is performed with the
(§3) (approximately 22 hours after pHrodo-myelin addition). Three measurements are extracted
(§4) intensity increase (early apoptosis) and decrease (later apoptosis), respectively. These
and 3). […]

[2] = test system: HMC3 (human microglia) cell line; experiment: as above; assay type: cell-based
Description: as §1, §2, §3, §4
and 3). […]

[3] = test system: BV2 (mouse microglia) cell line; experiment: pHrodo-myelin phagocytosis/cell viability high content imaging assay: viability (cell count, nuclear area, nuclear intensity); settings: for 1. Cell count (% control) / 2. Nuclear Area (% Control) / 3. Nuclear DNA Intensity (% control): 48 hours treatment
Description: (§5) All AD Informer Set compounds were tested in two immortalized microglial cell lines, murine (BV2), and human (HMC3), in a high‐content imaging assay in duplicate by the Chu lab. Experimental details and all data can be found as supporting information files.
(§6) The role of microglia in AD has been well documented and was thus chosen as a cell type in which to profile the AD Informer Set.[43], [44], [45] As an example, neuroinflammation, as detected by the presence of activated complement proteins, interleukins, cytokines, and chemokines in microglia and astrocytes, is increased early in AD and is considered pathogenic due to its chronic nature.[33], [34] Cytotoxic effects can be assessed by considering multiple parameters.
(§7) Microglial viability and phagocytosis studies: The pHrodo-myelin phagocytosis/cell viability assay, modified based on a published method, was run with immortalized BV2 (mouse microglia) and HMC3 (human microglia) cell lines in the Chu lab at IUSM. The 384-well plate high content analysis assay with BV2 and HMC3 microglial cell lines is used to quantify both phagocytosis and cell viability simultaneously. High content imaging is performed with the ArrayScan automatic imaging system and imaging analysis done with the software on the system. After allowing cells to adhere overnight, they are treated with compounds for total 48 hours including final 20 hours seeded with pHrodo-myelin (labeled phagocytosis ligand, purified […]
(§8) (approximately 22 hours after pHrodo-myelin addition). Three measurements are extracted from the assay: 1) phagocytosis signal by mean total phagocytosis spot intensity per cell, 2) total cell counts per well as the main measurement of cell viability, and 3) mean average nuclear intensity per cell as profiling of cell health since apoptotic cells showing nuclear intensity increase (early apoptosis) and decrease (later apoptosis), respectively. These measurements allow for evaluation of compound-induced phagocytosis (1) and cytotoxicity (2 and 3). Assays were carried out at a single concentration (10 μM). Idelalisib (10 μM) and cytochalasin-D (4 μM) were used as positive controls in the assay. All data, which was an average of 2 data points, was normalized to untreated wells and reported as % control, which is included in the Supporting Information both as a raw data file and summarized in the compound/gene-annotation file.

[4] = test system: HMC3 (human microglia) cell line; experiment: as above; settings: for 1. Cell count (% control) / 2. Nuclear Area (% Control) / 3. Nuclear DNA Intensity (% control): 48 hours treatment
Description: as §5, §6, §7, §8

[5] = BV2, compound 10 uM, pHrodo-myelin
[6] = HMC3, compound 10 uM, pHrodo-myelin
[7] = BV2 cells, 10 uM compound, 48 hours treatment, pHrodo-myelin final 20 hours
[8] = HMC3 cells, 10 uM compound, 48 hours treatment, pHrodo-myelin final 20 hours

SMILES	4. Phagocytosis (% control) [1, 5] [% control]	4. Phagocytosis (% control) [2, 6] [% control]	1. Cell count (% control) ([3]; BV2, compound 10 uM)	2. Nuclear Area (% Control) ([3]; BV2, compound 10 uM)	3. Nuclear DNA Intensity (% control) ([3]; BV2, compound 10 uM)	1. Cell count (% control) ([4]; HMC3, compound 10 uM)	2. Nuclear Area (% Control) ([4]; HMC3, compound 10 uM)	3. Nuclear DNA Intensity (% control) ([4]; HMC3, compound 10 uM)	4. Phagocytosis (% control) [1, 7] [% control]	4. Phagocytosis (% control) [2, 8] [% control]	1. Cell count (% control) ([3]; BV2 cells, 10 uM compound)	2. Nuclear Area (% Control) ([3]; BV2 cells, 10 uM compound)	3. Nuclear DNA Intensity (% control) ([3]; BV2 cells, 10 uM compound)	1. Cell count (% control) ([4]; HMC3 cells, 10 uM compound)	2. Nuclear Area (% Control) ([4]; HMC3 cells, 10 uM compound)	3. Nuclear DNA Intensity (% control) ([4]; HMC3 cells, 10 uM compound)	Stimulation of mouse microglial phagocytosis at 10 μM (>150% control) ([1]; 10 μM, BV2)	Inhibition of human microglial phagocytosis at 10 μM (<70% control) ([2]; 10 μM, HMC3)	Mouse microglial cytotoxicity at 10 μM (<70% control) ([3]; 10 μM, BV2)	Human microglial cytotoxicity at 10 μM (<70% control) ([4]; 10 μM, HMC3)
CC(C)(C)c1cc(NC(=O)Nc2ccc(-c3cn4c(n3)sc3cc(OCCN5CCOCC5)ccc34)cc2)no1 [UNC10220373A]	143.1	81.7	110.4	100.2	106.6	110.3	101.4	94.2												
CC(C)Nc1cc(-c2c[nH]c(C(=O)N[C@H](CO)c3cccc(Cl)c3)c2)c(Cl)cn1 [UNC10302869A]									222.2	59.0	44.0	125.5	96.6	116.3	105.5	89.1				
Cc1cc(SCc2sc(-c3ccc(C(F)(F)F)c(F)c3)nc2C)ccc1OCC(=O)O [UNC10302862A]									104.2	107.7	73.4	105.0	104.6	84.5	103.8	93.4				
O=C(O)CCCc1nc(-c2ccc(Cl)c(Cl)c2)c(-c2ccccc2)o1 [UNC8366A]	161.9	67.3	118.0	106.9	102.3	151.8	102.0	90.3												
CCC(=O)N1CCC(NC(=O)Nc2ccc(OC(F)(F)F)cc2)CC1 [UNC10302681A]									102.7	96.8	105.6	99.0	108.5	147.2	103.6	94.9				
c1cn2cc(-c3ccc4cn[nH]c4c3)nc(Nc3ccc(N4CCOCC4)cc3)c2n1 [UNC10302678A]									0.6	43.6	22.1	102.9	164.6	74.7	98.9	212.8				
CN1C(N)=N[C@](C)(c2cc(NC(=O)c3ccc(F)cn3)ccc2F)CS1(=O)=O [UNC10303092A]									127.2	104.7	104.0	108.1	102.5	119.4	99.5	97.7				
Clc1ccc(N/N=C(\c2ccccc2)c2ccccn2)nc1 [UNC3735A]									273.4	104.5	27.9	119.6	94.7	86.4	86.7	135.7				
CNC(=O)CN1CCC(Oc2cc3c(Nc4cccc(Cl)c4F)ncnc3cc2OC)CC1 [UNC10302865A]									68.8	152.7	102.4	110.1	101.0	132.1	105.8	90.8				
COc1cccc2c(NCc3ccccc3)nc(-n3c(N)nc4ccccc43)nc12 [UNC10302841A]									0.00115	0.0406	33.6	129.2	62.4	55.4	78.1	92.0				
CCOC(=O)CS(=O)(=O)c1ccc([C@@H](CO)NC(=O)c2cc3c(Cl)c(Cl)c(C)cc3n2C)cc1 [UNC10302908A]									249.0	53.1	28.9	117.3	97.5	71.6	75.5	156.6				
Cc1cc(NC(=O)Nc2ccccc2)n(-c2ccccc2)n1 [UNC10302880A]									135.3	71.0	120.0	104.5	102.6	145.4	97.9	96.8				
O=C1CCc2cc(OCCCCc3nnnn3C3CCCCC3)ccc2N1 [UNC10100278A]									125.3	104.4	112.3	103.2	104.4	103.2	103.0	97.0				
COc1cc([C@@H]2c3cc4c(cc3[C@H](O)[C@H]3COC(=O)[C@H]23)OCO4)cc(OC)c1OC [Podofilox]																	Y (The compound was found to stimulate phagocytosis (response threshold: >150% control) when murine immortalized microglial cells were dosed at 10 μM (Y: yes))	Y (The compound was found to inhibit phagocytosis (response threshold: <70% control) when human immortalized microglial cells were dosed at 10 μM (Y: yes))	Y (The compound was found to be cytotoxic (cell count threshold: <70% control) when murine immortalized microglial cells were dosed at 10 μM (Y: yes))	Y (The compound was found to be cytotoxic (cell count threshold: <70% control) when human immortalized microglial cells were dosed at 10 μM (Y: yes))
CC(=O)N[C@H](Cc1ccc(O)cc1)C(=O)N1CCC[C@@H]1C(=O)N1C[C@@H](O)C[C@@H]1C(=O)NCC(=O)N[C@H](C)C(=O)NCC(N)=O [UNC10303110A] (Ac-[dY][dP][dHyp]G[dA]G-NH2)	117.7	73.8	113.8	106.0	97.3	110.1	103.7	94.9												
Cc1ccccc1NC(=O)CN1C(=O)N/C(=C/c2ccccc2OCc2ccc(C(=O)O)cc2)C1=O [UNC10302882A]									153.2	89.7	94.9	109.5	96.5	155.5	101.8	92.5				
